In US20210139484A1, “DIHYDROISOQUINOLINE-2(1H)-CARBOXAMIDE AND RELATED COMPOUNDS AND THEIR USE IN TREATING MEDICAL CONDITIONS” (GOSSAMER BIO SERVICES, INC., priority 2018, published 2021):

Biological target: T1, human HPK1 protein (Homo sapiens, UniProt Q92918)
T1 construct: recombinant human HPK1 protein (a.a. 1-346) was expressed in Sf9 insect cells; GST (N); purchased Signalchem M23-11G; host or cells: Sf9 insect cells (baculovirus)
T1 sequence (Q92918 1-346): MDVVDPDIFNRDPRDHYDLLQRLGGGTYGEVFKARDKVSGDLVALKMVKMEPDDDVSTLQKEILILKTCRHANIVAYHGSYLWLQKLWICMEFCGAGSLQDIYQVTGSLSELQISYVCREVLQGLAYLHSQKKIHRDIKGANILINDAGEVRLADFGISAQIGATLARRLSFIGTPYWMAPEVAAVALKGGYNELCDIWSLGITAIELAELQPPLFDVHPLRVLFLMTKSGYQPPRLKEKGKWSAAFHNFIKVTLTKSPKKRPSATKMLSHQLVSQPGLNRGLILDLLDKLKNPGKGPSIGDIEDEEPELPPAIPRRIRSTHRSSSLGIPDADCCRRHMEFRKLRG
Assay: Human HPK1 protein TR-FRET assay
Format: biochemical
Conditions: 1 mM ATP, Table 19
Method in brief: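 Read-out was TR-FRET using Eu-labeled anti-phospho-CREB (Ser133) antibody, with the 665/615 nm signal ratio normalised to DMSO-only wells and fitted by a 4-parameter logistic model for IC50. Reactions held 10 nM Sf9-expressed GST-HPK1 (a.a. 1-346), 100 nM CREBtide and 1 mM ATP, run 60 minutes at room temperature, pH 7.5.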

| IC50 [nM] | SMILES |
| --- | --- |
| < 500 | CCN1CCN(Cc2ccc(NC(=O)N3Cc4cc(Oc5ccnc6[nH]c(C)cc56)ccc4C(O)C3)cc2C(F)(F)F)CC1 (stereo not drawn) [compound 18, N-(4-((4-ethylpiperazin-1-yl)methyl)-3-(trifluoromethyl)phenyl)-4-hydroxy-7-((2-methyl-1H-pyrrolo[2,3-b]pyridin-4-yl)oxy)-3,4-dihydroisoquinoline-2(1H)-carboxamide] |

Same assay, conditions: 1 mM ATP, Table 20

| SMILES | IC50 [nM] |
| --- | --- |
| CN1CCN(Cc2ccc(NC(=O)N3CCc4ccc(Oc5c(F)cnc6[nH]c(-c7cnn(C)c7)cc56)cc4C3)cc2C(F)(F)F)CC1 [compound 19, 7-[[5-Fluoro-2-(1-methylpyrazol-4-yl)-1H-pyrrolo[2,3-b]pyridin-4-yl]oxy]-N-[4-[(4-methylpiperazin-1-yl)methyl]-3-(trifluoromethyl)phenyl]-3,4-dihydro-1H-isoquinoline-2-carboxamide] | < 500 |
| CC[C@H]1CN(C(=O)Nc2ccc(CN3CCN(C)CC3)c(C(F)(F)F)c2)Cc2cc(Oc3ccnc4[nH]c(C#N)cc34)cnc21 [compound 20, (8S)-3-[(2-Cyano-1H-pyrrolo[2,3-b]pyridin-4-yl)oxy]-8-ethyl-N-[4-[(4-methylpiperazin-1-yl)methyl]-3-(trifluoromethyl)phenyl]-7,8-dihydro-5H-1,6-naphthyridine-6-carboxamide] | < 500 |

Second part, the compound after the results:

| IC50 [nM] | SMILES |
| --- | --- |
| < 500 | CC[C@H]1CN(C(=O)Nc2ccc(CN3CCN(C)CC3)c(C(F)(F)F)c2)Cc2cc(Oc3ccnc4[nH]c(C(=O)N(C)C)cc34)cnc21 [compound 21, (8S)-3-[[2-(dimethylcarbamoyl)-1H-pyrrolo[2,3-b]pyridin-4-yl]oxy]-8-ethyl-N-[4-[(4-methylpiperazin-1-yl)methyl]-3-(trifluoromethyl)phenyl]-7,8-dihydro-5H-1,6-naphthyridine-6-carboxamide] |
| < 500 | CN1CCN(Cc2ccc(NC(=O)N3CCc4ccc(Nc5c(F)cnc6[nH]c(-c7cnn(C)c7)cc56)cc4C3)cc2C(F)(F)F)CC1 [compound 22, 7-[[5-Fluoro-2-(1-methylpyrazol-4-yl)-1H-pyrrolo[2,3-b]pyridin-4-yl]amino]-N-[4-[(4-methylpiperazin-1-yl)methyl]-3-(trifluoromethyl)phenyl]-3,4-dihydro-1H-isoquinoline-2-carboxamide] |
| < 500 | CCN1CCN(Cc2ccc(NC(=O)C3CCc4ncc(Oc5ccnc6[nH]ccc56)cc4C3)cc2C(F)(F)F)CC1 (stereo not drawn) [compound 24, 3-((1H-Pyrrolo[2,3-b]pyridin-4-yl)oxy)-N-(4-((4-ethylpiperazin-1-yl)methyl)-3-(trifluoromethyl)phenyl)-5,6,7,8-tetrahydroquinoline-6-carboxamide] |
